We go through 8 compounds from patent US20230203081A1, “LINCOSAMIDE ANTIBIOTICS AND USES THEREOF” (President and Fellows of Harvard College, priority 2020, published 2023).

≈ marks a conversion by molar mass, not a printed value. Read-outs that look alike come from different tables or passages of the source.

What all share (format): cell-based
One assay has as its system S. aureus BAA 977 iErmA. Nature of the assay: microbe, parasite or virus in culture. The gist of the method:
(§1)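 Per CLSI, MICs by broth microdilution or agar dilution; strains other than streptococci and anaerobes were sub-cultured overnight at 35° C on blood agar, with a final broth inoculum of 5×10^5 CFU/mL.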

Another assay relates to S. aureus MP-549 msrA. The assay can be described thus: microbe, parasite or virus in culture. The procedure, abridged: as §1
Another assay relates to E. faecium Line R & VRE. The assay can be described thus: MIC (broth microdilution or agar dilution, CLSI). The procedure, abridged:
(§2)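 MICs were measured by CLSI broth microdilution or agar dilution over 128-0.06 μg/mL test compound at 2.5% final DMSO, in triplicate. Non-streptococcal, aerobic strains were grown overnight at 35° C on sheep blood agar, suspended in cation-adjusted Mueller-Hinton broth to 0.5 McFarland, and diluted to 5×10^5 CFU/mL.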
In general terms: Broth dilution looks for growth in wells or tubes with falling amounts of substance.

The test system of another assay is A. baumannii ATCC 19606. Nature of the assay: MIC (broth microdilution or agar dilution, CLSI). The gist of the method:
as §1

The next assay deals with P. aeruginosa ATCC 27853. The assay can be described thus: MIC (broth microdilution or agar dilution, CLSI). The gist of the method:
as §2

The test system of another assay is P. aeruginosa ΔAmex OprM. The assay can be described thus: MIC (broth microdilution or agar dilution, CLSI). The procedure, abridged:
as §2

Another assay relates to B. fragilis ATCC 25285. The assay can be described thus: MIC (broth microdilution or agar dilution, CLSI). Particulars: Bacteroides fragilis, read-out: MIC. The gist of the method:
as §2

In another assay the test system is C. difficile ATCC 700057. The assay can be described thus: MIC (broth microdilution or agar dilution, CLSI). The gist of the method:
as §2

The next assay concerns C. scindens ATCC 35704. Nature of the assay: MIC (broth microdilution or agar dilution, CLSI). The procedure, abridged:
as §2

The test system of assay [1] is E. coli MP-74 LptD mutant. The assay can be described thus: MIC (broth microdilution or agar dilution, CLSI). The settings on record: Escherichia coli. The procedure, abridged: as §2
Another assay concerns E. faecium Clinical VRE. The assay can be described thus: MIC (broth microdilution or agar dilution, CLSI). Particulars: Enterococcus faecium, VRE. The gist of the method: as §2
The test system of another assay is E. faecium VRE. The assay can be described thus: MIC (broth microdilution or agar dilution, CLSI). Particulars: Enterococcus faecium, VRE. The procedure, abridged:
as §2

For a further assay, the system named is S. aureus MRSA. The assay can be described thus: MIC (broth microdilution or agar dilution, CLSI). Particulars: Staphylococcus aureus. The procedure, abridged:
as §2

A further assay has as its system S. aureus cErmA. The assay can be described thus: MIC (broth microdilution or agar dilution, CLSI). The settings on record: Staphylococcus aureus. The gist of the method: as §2
The test system of assay [2] is E. faecalis VRE. The assay can be described thus: MIC (CLSI), second E. faecalis VRE line of Table 4. Particulars: Enterococcus faecalis, VRE. How it is done:
(§3) Minimum inhibitory concentrations (MICs) were determined by broth microdilution method or agar dilution method following the Clinical and Laboratory Standards Institute guidelines. Standard bacterial strains were obtained from American Type Culture Collection (ATCC). Other bacterial strains were obtained from hospitals and commercial sources, so noted in Table 11. Before the start of the MIC experiment, standard and test compound stock solutions were prepared in dimethyl sulfoxide (DMSO, Aldrich D2650) at a stock concentration of 5,120 μg/mL. The compound concentration range typically employed for each experiment was 128-0.06 μg/mL (2.5% final DMSO concentration). Clindamycin was used as a comparator in all experiments and each experiment was performed in triplicate. Specialized procedures were employed for streptococcal and anaerobic strains. All other bacterial strains were sub-cultured on blood agar plates (tryptic soy agar with 5% sheep blood, Hardy Diagnostics) and incubated overnight at 35° C. Organisms were suspended in cation-adjusted Mueller-Hinton broth (CaMHB, BD 212322) and optical density was adjusted to 0.5 McFarland standard. Suspensions were further diluted to obtain a final inoculum of 5×10^5 CFU/mL for broth microdilution experiments.

Assay [3] deals with E. faecalis VRE. Nature of the assay: MIC (CLSI), third E. faecalis VRE line of Table 4. Particulars: Enterococcus faecalis, VRE. The procedure:
as §3

For another assay, the system named is Escherichia coli c-ermB. Nature of the assay: MIC, clinically derived E. coli with acquired resistance. Particulars: Escherichia coli. The procedure:
as §3

The subject of the next assay is E. coli strain SQ110DTC. The assay can be described thus: MIC in LB medium against E. coli SQ110DTC and its FSA-513018b-resistant mutants (Table 14). Particulars: Escherichia coli.
For the next assay, the system named is H. influenzae ATCC 49247. Nature of the assay: MIC (broth microdilution or agar dilution, CLSI). Particulars: Haemophilus influenzae, ATCC49247. The gist of the method:
as §1

Where [4] appears, read: Staphylococcus aureus, BAA-977 / MRSA.
The mark [5] stands for this setting: Staphylococcus aureus, MP549MSRA, S. aureus HAV#032, MP-549, MSR(A), read-out: MIC.
Where [6] appears, read: Enterococcus faecium, E. faecium HAV#319, Line R & Vanco R, read-out: MIC.
Setting [7] is: Acinetobacter baumannii, ATCC19606, A. baumanii HAV#010, ATCC 19606, read-out: MIC.
[8] abbreviates: Staphylococcus aureus, MP549MSRA, S. aureus HAV#032, MP-549, MSR(A).
[9] abbreviates: Pseudomonas aeruginosa, ATCC27853, P. aeruginosa HAV#009, ATCC 27853, read-out: MIC.
The mark [10] stands for this setting: Staphylococcus aureus, BAA-977 / MRSA, 24 h.
[11] abbreviates: E. faecium HAV#319, Line R & Vanco R.
Where [12] appears, read: P. aeruginosa HAV#009, ATCC 27853.
Setting [13] is: P. aeruginosa HAV#039, ΔAmex OprM.
[14] abbreviates: A. baumanii HAV#010, ATCC 19606.

As for `CC[C@H]1OC(=O)[C@H](C)[C@@H](O[C@H]2C[C@@](C)(OC)[C@@H](O)[C@H](C)O2)[C@H](C)[C@@H](O[C@@H]2O[C@H](C)C[C@H](N(C)C)[C@H]2O)[C@](C)(O)C[C@@H](C)CN(C)[C@H](C)[C@@H](O)[C@]1(C)O` [Azithromycin], the MIC against S. aureus BAA 977 iErmA (setting [4]) is > 64 µg/mL; with S. aureus MP-549 msrA (setting [5]) it was > 64 µg/mL; with E. faecium Line R & VRE (setting [6]), 8 µg/mL (≈ 10.7 µM); in the assay with A. baumannii ATCC 19606 (setting [7]), 64 µg/mL (≈ 85.4 µM).

With `CO/N=C(\C(=O)N[C@@H]1C(=O)N2C(C(=O)O)=C(CSc3nc(=O)c(=O)[nH]n3C)CS[C@H]12)c1csc(N)n1` [Ceftriaxone], the MIC against S. aureus BAA 977 iErmA (setting [4]) is 2 µg/mL (≈ 3.61 µM); against S. aureus MP-549 msrA (setting [8]) it was > 128 µg/mL; with E. faecium Line R & VRE (setting [6]), > 256 µg/mL; in the assay with P. aeruginosa ATCC 27853 (setting [9]), > 64 µg/mL; against P. aeruginosa ΔAmex OprM (Pseudomonas aeruginosa), 16 µg/mL (≈ 28.9 µM).

Consider `CCC[C@@H]1C[C@@H](C(=O)N[C@@H]([C@H]2O[C@H](SC)[C@H](O)[C@@H](O)[C@H]2O)[C@H](C)Cl)N(C)C1` [Clindamycin, clindamycin, reference compound], for which the MIC is 0.12 µg/mL (≈ 0.282 µM) in the assay with S. aureus BAA 977 iErmA (Staphylococcus aureus, BAA977); 0.125 µg/mL (≈ 0.294 µM) with S. aureus BAA 977 iErmA (setting [4]); > 128 µg/mL against S. aureus BAA 977 iErmA (setting [10]); 0.12 µg/mL (≈ 0.282 µM) against S. aureus MP-549 msrA (Staphylococcus aureus, MP549MSRA, S. aureus MP-549 msrA); 0.125 µg/mL (≈ 0.294 µM) against S. aureus MP-549 msrA (setting [8]); 1 µg/mL (≈ 2.35 µM) with B. fragilis ATCC 25285 (ATCC25285, B. fragilis ATCC 25285). In addition, the MIC was determined as 0.5 µg/mL (≈ 1.18 µM) with B. fragilis ATCC 25285 (ATCC25285, B. fragilis HAV#013, ATCC 25285); 8 µg/mL (≈ 18.8 µM) against C. difficile ATCC 700057 (C. difficile HAV#011, ATCC 700057); 8 µg/mL (≈ 18.8 µM) in the assay on C. difficile ATCC 700057 (Clostridioides difficile, ATCC700057, C. difficile ATCC 700057, read-out: MIC); 2 µg/mL (≈ 4.71 µM) against C. scindens ATCC 35704 (C. scindens HAV#012, ATCC 35704); 2 µg/mL (≈ 4.71 µM) with C. scindens ATCC 35704 ([Clostridium] scindens, ATCC35704, C. scindens ATCC 35704, read-out: MIC); 4 µg/mL (≈ 9.41 µM) in assay [1]. The MIC in the assay on E. faecium Clinical VRE was > 128 µg/mL; with E. faecium Line R & VRE (setting [11]), >128 µg/mL; in the assay on E. faecium Line R & VRE (Enterococcus faecium) it was > 128 µg/mL; in the assay on E. faecium VRE, > 128 µg/mL; against P. aeruginosa ATCC 27853 (setting [12]), >128 µg/mL; against P. aeruginosa ATCC 27853 (Pseudomonas aeruginosa, ATCC27853), > 128 µg/mL. The MIC was 32 µg/mL (≈ 75.3 µM) with P. aeruginosa ΔAmex OprM (setting [13]); 32 µg/mL (≈ 75.3 µM) against P. aeruginosa ΔAmex OprM (Pseudomonas aeruginosa); 0.25 µg/mL (≈ 0.588 µM) against S. aureus MRSA; > 128 µg/mL in the assay with S. aureus cErmA; >128 µg/mL in the assay with A. baumannii ATCC 19606 (setting [14]); > 128 µg/mL against A. baumannii ATCC 19606 (Acinetobacter baumannii, ATCC19606). The MIC against E. faecalis VRE [2] is > 128 µg/mL; in the assay on E. faecalis VRE [3] it was > 128 µg/mL; against Escherichia coli c-ermB, > 128 µg/mL; with E. coli strain SQ110DTC (E. coli SQ110DTC, WT) it was 16 µg/mL (≈ 37.6 µM); against E. coli strain SQ110DTC (clone SA-3R1, mutation 2058G, selection plate 1 μg/mL FSA-513018b) it was > 128 µg/mL; in the assay on E. coli strain SQ110DTC (clone SA-3R2, mutation 2059G, selection plate […] FSA-513018b), > 128 µg/mL. In addition, the MIC against E. coli strain SQ110DTC (clone SA-3R9, mutation 2058G, selection plate […] FSA-513018b) was > 128 µg/mL; against E. coli strain SQ110DTC (clone SA-3R13, mutation 2059G, selection plate 1 μg/mL FSA-513018b), > 128 µg/mL.

On to `C[C@H]1c2cccc(O)c2C(=O)C2=C(O)[C@]3(O)C(=O)C(C(N)=O)=C(O)[C@@H](N(C)C)[C@@H]3[C@@H](O)[C@@H]21` [Doxycycline], for which the MIC was determined as 0.25 µg/mL (≈ 0.563 µM) in the assay with S. aureus BAA 977 iErmA (setting [4]) and 8 µg/mL (≈ 18 µM) in the assay with S. aureus MP-549 msrA (setting [5]).

Turning to `C[C@H]1COc2c(N3CCN(C)CC3)c(F)cc3c(=O)c(C(=O)O)cn1c23` [Levofloxacin], the MIC is 0.5 µg/mL (≈ 1.38 µM) in the assay on S. aureus BAA 977 iErmA (setting [4]); 1 µg/mL (≈ 2.77 µM) in the assay on S. aureus MP-549 msrA (setting [5]); 2 µg/mL (≈ 5.53 µM) in the assay with P. aeruginosa ATCC 27853 (setting [9]); 0.125 µg/mL (≈ 0.346 µM) in the assay with P. aeruginosa ΔAmex OprM (Pseudomonas aeruginosa); 1 µg/mL (≈ 2.77 µM) in the assay on A. baumannii ATCC 19606 (setting [7]).

As for `CC(=O)NC[C@H]1CN(c2ccc(N3CCOCC3)c(F)c2)C(=O)O1` [Linezolid], the MIC was found to be 2 µg/mL (≈ 5.93 µM) in the assay on S. aureus BAA 977 iErmA (setting [4]), 4 µg/mL (≈ 11.9 µM) against S. aureus BAA 977 iErmA (setting [10]) and 4 µg/mL (≈ 11.9 µM) in the assay with S. aureus MP-549 msrA (setting [5]).

On to `CN[C@H](CC(C)C)C(=O)N[C@H]1C(=O)N[C@@H](CC(N)=O)C(=O)N[C@H]2C(=O)N[C@H]3C(=O)N[C@H](C(=O)N[C@H](C(=O)O)c4cc(O)cc(O)c4-c4cc3ccc4O)[C@H](O)c3ccc(c(Cl)c3)Oc3cc2cc(c3O[C@@H]2O[C@H](CO)[C@@H](O)[C@H](O)[C@H]2O[C@H]2C[C@](C)(N)[C@H](O)[C@H](C)O2)Oc2ccc(cc2Cl)[C@H]1O` [Vancomycin], for which the MIC in the assay on S. aureus BAA 977 iErmA (setting [4]) is 1 µg/mL (≈ 0.69 µM); against S. aureus MP-549 msrA (Staphylococcus aureus, MP549MSRA), 1 µg/mL (≈ 0.69 µM); with H. influenzae ATCC 49247, > 64 µg/mL.

As for Gentamicin, the MIC with S. aureus BAA 977 iErmA (S. aureus #HAV002, ATCC BAA 977, iErmA, MRSA) was 2 µg/mL; with S. aureus MP-549 msrA (S. aureus HAV#032, MP-549, MSR(A)) it was 1 µg/mL; with E. faecium Line R & VRE (setting [11]), 64 µg/mL; in the assay with P. aeruginosa ATCC 27853 (setting [12]), >64 µg/mL; against P. aeruginosa ΔAmex OprM (setting [13]), >64 µg/mL; in the assay on A. baumannii ATCC 19606 (setting [14]) it was >64 µg/mL.
